We go through six molecules from patent publication US20140249156A1, “Treatment Of Blood Lipid Abnormalities And Other Conditions” (GlaxoSmithKline LLC, priority 2011, published 2014).

Structures are written as SMILES.

One assay concerns humans. As to conditions: cited from earlier work.
A further assay concerns male Crl:CD(SD) rats. The assay can be described thus: Appearance of radiolabeled cholesterol (chylomicrons) in circulation after labeled oral fat challenge with triton block. Type of assay: in vivo, rat. Conditions: vs vehicle; for appearance of 3H cholesterol (CPM) in the serum: 3H cholesterol tracer. The text has this: A rat model (male Crl:CD(SD) rats) was used for the evaluation of a diverse set of GPR119 agonists. The objective of the studies was to determine if administration of a single dose of an agonist affects the appearance of chylomicrons containing either ^3H- or ^14C-cholesterol in circulation of fasted Crl:CD(SD) rats.
In order to track chylomicron appearance in circulation, radiolabeled cholesterol (with or without radiolabeled retinol) was co-administered with olive oil by oral gavage. Both tracers label the chylomicron core as the cholesterol administered is esterified in the enterocyte, packaged into the chylomicron, and released into the lymphatic system for transport to the systemic circulation. In order to assess appearance and accumulation of the newly formed chylomicrons in circulation, triton was administered by intravenous injection to block the clearance of these particles from circulation.
The rats had been previously instrumented with an implanted jugular catheter to facilitate obtaining multiple blood samples without stress to the animal. Rats were fasted overnight prior to labeled oral fat challenge. All compounds were dosed one hour prior to the challenge test. Treatment groups were randomized by body weight.
All compounds were administered at 5 mL/kg by the oral route as suspensions in hydroxypropylmethylcellulose (0.5%) which contained 0.1% Tween 80. Triton (250 mg/kg) was administered by intravenous injection immediately prior to an oral gavage of the tracer mixed with olive oil. Total volume of olive oil administered per rat was 2 mL, which contained (per 2 mL olive oil) either:
5-10 uCi ^14C-cholesterol (alone or in combination with 80 uCi ^3H-retinol)
5-20 uCi ^3H-cholesterol.
Blood samples were taken at the following time points: 0.25, 0.5, 0.75, 1, 2, 3, 4, 5 and 6 hours post olive oil gavage. Samples were spun at 8,000×g for 8 minutes at room temperature and 100 uL aliquots of serum counted for ^3H or ^14C.

[1] abbreviates: previously discovered, patients.
[2] abbreviates: single oral dose 30 mg/kg one hour before olive oil containing 14C cholesterol.

`CC(C)c1noc(N2CCC(COc3ccc(-c4ccc(S(C)(=O)=O)cc4)nc3)CC2)n1` [Compound A, 5-[({1-[3-(1-methylethyl)-1,2,4-oxadiazol-5-yl]-4-piperidinyl}methyl)oxy]-2-[4-(methylsulfonyl)phenyl]pyridine]: in the assay with humans (humans), the “fasting ApoB/B100” value is listed as “reducing”, the “fasting ApoB/B100:ApoA1 ratio” value is “reducing”, the “fasting ApoE” value is on record as “reducing” and the “fasting HDL cholesterol” value is listed as “increasing”. Also, in the assay on humans (humans), the “fasting LDL cholesterol” value is recorded as “reduced”, the “fasting LDL cholesterol:HDL cholesterol ratio” value was “reducing”, the “fasting non-HDL cholesterol” value was “reducing” and the “fasting plasma alanine aminotransferase” value was “reducing”. Also, in the assay with humans (humans), the “fasting plasma uric acid” value is “reducing”, the fasting total cholesterol result is given as “reducing”, the “fasting total cholesterol:HDL cholesterol ratio” value is “reducing” and the fasting triglycerides entry was “reducing”. For the same molecule, the prandial triglycerides entry in the assay with humans (humans) is “reducing”. Besides, the “rise in serum triglycerides that occurs following meals” value in the assay on humans (patients treated with Compound A) is on record as “significantly blunted”. For the same molecule, in the assay with humans (setting [1]), the HDL cholesterol result was “raises”, the LDL cholesterol result is reported as “lowers” and the total cholesterol result is given as “lowers”. Moreover, in the assay on male Crl:CD(SD) rats (single oral dose 3 mg/kg), the “appearance of 3H cholesterol (CPM) in the serum” value (from here on “appearance of 3H cholesterol”) is “decreased”. The “appearance of 14C labeled chylomicrons in circulation” value (shortened to “appearance … in circulation”) in the assay on male Crl:CD(SD) rats (single oral dose 3 mg/kg, olive oil containing 14C cholesterol) is reported as “significantly reduced”. In addition, the “appearance of 3H cholesterol” value in the assay with male Crl:CD(SD) rats (single oral dose 10 mg/kg) is reported as “decreased”. In the assay with male Crl:CD(SD) rats (single oral dose 10 mg/kg, olive oil containing 14C cholesterol), the “appearance … in circulation” value is “significantly reduced”. Moreover, the “appearance … in circulation” value in the assay with male Crl:CD(SD) rats (setting [2]) is “significantly reduced”.
As for `CC(C)c1noc(N2CCC([C@H](C)Oc3cnc(-c4ccc(S(C)(=O)=O)cc4)cn3)CC2)n1` [Compound B, 2-[((1S)-1-{1-[3-(1-methylethyl)-1,2,4-oxadiazol-5-yl]-4-piperidinyl}ethyl)oxy]-5-[4-(methylsulfonyl)phenyl]pyrazine], the “appearance … in circulation” value with male Crl:CD(SD) rats (setting [2]) is reported as “significantly reduced”. For the same molecule, the “appearance of 3H cholesterol” value in the assay with male Crl:CD(SD) rats (single oral dose 30 mg/kg) is reported as “decreased”.
`Cc1ncccc1Oc1ncnc(OC2CCN(C(=O)OC(C)C)CC2)c1C.Cl` [Compound G, 1-methylethyl 4-({5-methyl-6-[(2-methyl-3-pyridinyl)oxy]-4-pyrimidinyl}oxy)-1-piperidinecarboxylate hydrochloride]: the “appearance of 3H cholesterol” value in the assay with male Crl:CD(SD) rats (single oral dose 30 mg/kg) was “significant reduced”.
The same measure, in the same setting: the same measure for `Cc1cc(S(C)(=O)=O)ccc1N1CCc2c(OC3CCN(C(=O)OC(C)C)CC3)ncnc21` [Compound H, 1-methylethyl 4-({7-[2-methyl-4-(methylsulfonyl)phenyl]-6,7-dihydro-5H-pyrrolo[2,3-d]pyrimidin-4-yl}oxy)-1-piperidinecarboxylate]: “significant reduced”.
For `CC(C)n1nnc(N2CCC([C@H](C)Oc3cnc(-c4ccc(S(C)(=O)=O)cc4)cn3)CC2)n1` [Compound I, 2-[((1S)-1-{1-[2-(1-methylethyl)-2H-tetrazol-5-yl]-4-piperidinyl}ethyl)oxy]-5-[4-(methylsulfonyl)phenyl]pyrazine], the “appearance of 3H cholesterol” value in the assay with male Crl:CD(SD) rats (single oral dose 30 mg/kg) is on record as “significant reduced”.
On the same count and under the same terms, the same measure for `C[C@@H](OC1CCN(C(=O)OC(C)(C)C)CC1)c1nc(-c2ccc(S(C)(=O)=O)c(F)c2)no1` [Compound J, 1,1-dimethylethyl 4-[((1R)-1-{3-[3-fluoro-4-(methylsulfonyl)phenyl]-1,2,4-oxadiazol-5-yl}ethyl)oxy]-1-piperidinecarboxylate]: “significant reduced”.
